US20250215052A1, “INHIBITORS OF PICK1 AND USES THEREOF” (University of Copenhagen, priority 2018, published 2025)

Tests used:
Plasma stability = assay type: in vitro ADME; settings: human, 37° C., 24 h incubation
Method: (§1) 360 μL undiluted human male serum (Sigma; H4522) or PBS was kept at 37° C. for 15 min, followed by addition of 40 μL (500 uM) of relevant peptide and subsequent incubation at 37° C. For stability analysis, 45 μL samples was taken out at t=0 min and t=24 hrs, and samples quenched by addition of 50 μL 6M urea followed by incubation at 37° C. for additional 30 min. 50 μL 20% TCA (W7V) in acetone was added to each sample before incubation for at least 16 hrs at 5° C. Samples were centrifuged at 14.000×g for 30 min and supernatants collected and filtered using a 0.22 μm syringe filter. Samples were analyzed on an Acquity UPLC H-Class instrument using a C18 column with a 15 min 10-80% […] gradient. Remaining analyte (%) was calculated as the area under curve (AUC) of the main peak at indicated time points relative to the sample at t=0 min.

[1] = target: T1, PICK1 pre-bound to TacDAT C24 (Rattus norvegicus, UniProt Q9EP80); assay: SCMS dissociation of pre-bound PICK1; assay type: binding; settings: pre-bound PICK1 on TacDAT C24 SCMS
T1 construct: Partner: transfected HEK293-GT cells, ruptured into membrane sheets
Method: Human Embryo Kidney 293 GripTite cells (HEK293-GT) for SCMS were grown i in Dulbecco's modified Eagle's medium 1965 with fetal calf serum and pen-strep antibiotics. Cells were transfected using TAC-YFP-DATC24 DNA (pEYFP-C1 vector) and lipovectamin in opti-MEM® overnight. Cells were washed once with PBS and detached using 0.5% Trypsin with EDTA. Cells were then seeded into 6-well plates and allowed to grow and attach overnight at 37° C. in humidified 10% CO2 atmosphere.
The SCMS was prepared as described in (Perez et al., 2006). In brief, round cover glasses were plasma cleaned and coated with 0.3 mM poly-L-ornithine hydrobromide (Poly-ORN) for 30 min. The coating Poly-ORN was then removed. Seeded and transfected cells were then washed twice to allow them to swell. The swelled cells were then covered with the cover glass with the Poly-ORN coated side facing down on the cells. Dynamic pressure was manually applied to the cover glass using the piston from a 12 ml plastic syringe for a total of 1 min. The force from removing the cover glass causes some cells to rupture and leave a SCMS on the surface of the cover glass. […] A protein solution was then added to the cover glass and left to incubate for the desired amount of time depending on the experiment. […] The protein: peptide solution was then added to the SCMS-cover glass and incubated for 2 hours. […]

PBS stability = assay type: physicochemical; settings: 37° C., 24 hrs
Method: as §1

SNI mice [2] = assay: Spared nerve injury (SNI) model, Von Frey test, intrathecal or i.p. administration; assay type: in vivo
Method: Spared nerve injury model (SNI) was performed according to methods described in Richner et al., 2011. Briefly, under isoflurane (2%) anaesthesia, the skin on the left lateral surface of the thigh was incised and the biceps femoris muscle was divided and spread lengthwise to expose the three branches of the sciatic nerve. After exposing the three branches (common peroneal, tibial and sural) in anesthetized mice, the common peroneal and tibial branches were carefully segregated from surrounding tissues, tightly ligated and axotomized ˜2 mm of the distal nerve stump, while the sural branch was left intact.
Drugs were administered either intrathecally to anesthetized mice or intraperitoneally (i.p.).
The development and level of mechanical threshold was determined in the affected hind paws 2 days after the SNI procedure by using Von Frey filaments ranging from 0.02 to 1.4 g. In the current experiments filaments in ascending order were applied to the lateral part of the hind paws. Each Von Frey hair was applied five times over a total period of 30 seconds and the mouse's reaction was assessed after each application; the threshold for a positive test was set at 3 trials, which evoked responses out of a maximum of 5 trials. […] Forces of the instrument are measured with units “g” and represent the gram-forces. […]

PICK1 = target: T2, PICK1 (Rattus norvegicus, UniProt Q9EP80); assay: biochemical; assay type: binding; settings: for Fold affinity change: compared to TAT-P4-(C5)2
T2 construct: made in house; host or cells: E. coli BL21-DE3-pLysS
Method: The data was plotted in GraphPad Prism 7.0 and fitted to a ‘One site-Fit’ Ki curve and the apparent affinities (Ki) for the unlabelled peptides were determined using correction for depletion.

SNI mice [3] = assay: SNI neuropathic pain model, subcutaneous administration, Von Frey; assay type: in vivo; settings: 10 μmol/kg s.c.
Method: Mice: 8 weeks old C57BI6J mice (from Charles River)
10 μmol/kg peptide solution was subcutaneously administered (100 μL/10 g).
Spared Nerved Injury surgery: The surgery was performed on anaesthetized mice. A complete ligature and transection of the common peroneal and tibial distal branches of the sciatic nerve was performed, leaving the sural branch intact. The operated side is referred to as the ipsilateral side and the non-operated side is referred to as the contralateral side. 7 days post-surgery, a decrease of threshold response to Von Frey filaments of ipsilateral hind paw was observed.
Mechanical threshold response: The mechanical threshold response of the operated mice was measured with calibrated Von Frey filaments using up/down method, and the 50% threshold (g) was calculated (see equation 1). Mechanical pain responses are defined as paw withdrawal, flinching and/or paw licking following filament prick. The experimenter was blinded to mice treatment. One baseline measure was performed before surgery, one measure 7 days after surgery (D+7) before drug's administration. One measure was performed 1 h, 2 h, 3 h and 4 h post drug administration. n=8 mice/timepoint for peptide treatment.
Statistical analysis: Statistical analysis was performed using Graphpad Prism 7.0. Pain threshold, measured as paw withdrawal threshold, was compared between time “before drug effect” and time points after drug administration (+1, +2, +3, +4 hrs), or against vehicle control (all time points). Two-way RM ANOVA followed by Dunnet's multiple comparison tests. Significance level set to p<0.05.

[4] = FPLC size exclusion chromatography of CPP variants in PBS; assay type: physicochemical; settings: Superdex 200 Increase 10/300, relative to P4-(C5)2
Method: All samples were run in a 200 μL volume on a Superdex 200 Increase 10/300 column on an AKTA purifier FPLC system. The absorbance at 280 nm as a function of elution volume was normalized to the maximal absorbance of each peptide and plotted using GraphPadPrism 7.0.

PICK1 PDZ domain = target: T3, PICK1 PDZ domain (Rattus norvegicus, UniProt Q9EP80); assay: Fluorescence polarization competition binding to PICK1 (Example 1); settings: PEGx dimerization of C5
T3 construct: made in house; host or cells: E. coli BL21-DE3-pLysS
T3 sequence (Q9EP80 whole entry, the tested form may be a part): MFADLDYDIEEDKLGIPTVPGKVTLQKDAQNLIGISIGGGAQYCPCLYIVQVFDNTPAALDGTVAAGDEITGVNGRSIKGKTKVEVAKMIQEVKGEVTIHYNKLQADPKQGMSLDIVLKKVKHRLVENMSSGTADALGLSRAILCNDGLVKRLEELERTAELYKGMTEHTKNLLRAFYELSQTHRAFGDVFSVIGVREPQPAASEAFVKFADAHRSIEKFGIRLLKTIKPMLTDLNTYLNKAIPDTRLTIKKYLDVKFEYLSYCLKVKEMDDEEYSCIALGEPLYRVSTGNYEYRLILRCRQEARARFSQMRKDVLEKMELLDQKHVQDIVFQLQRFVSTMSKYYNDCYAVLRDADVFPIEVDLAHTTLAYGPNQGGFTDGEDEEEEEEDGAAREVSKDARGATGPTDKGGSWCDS
Method: Protein expression was induced with 10 mM Isopropyl β-D-1-thiogalactopyranoside (IPTG) and grown overnight at 20° C. […] Resuspended pellet was frozen at −80° C. to induce cell lysis. The bacterial suspension was thawed and cleared by centrifugation. The supernatant was collected and incubated with Glutathione-Sepharose 4B beads for 2 hrs at 4° C. under gentle rotation. […] Washed beads were transferred to a PD10 gravity column. Bead solution was incubated with thrombin protease overnight at 4° C. under gentle rotation.
Fluorescence polarization was carried out in saturation mode and competition mode.

T2 sequence (Q9EP80 whole entry): as the sequence (Q9EP80 whole entry, the tested form may be a part) above
T1 sequence (Q9EP80 whole entry): as the sequence (Q9EP80 whole entry, the tested form may be a part) above

CC(C)C[C@H](NC(=O)[C@H](Cc1c[nH]c2ccccc12)NC(=O)[C@@H](N)Cc1cnc[nH]1)C(=O)N[C@@H](CCCCN)C(=O)N[C@H](C(=O)O)C(C)C [C5, HWLKV]
plasma stability (Plasma stability): full degradation | dissociation of pre-bound PICK1 from SCMSs [1]: neither C5 nor TAT-(C5) could significantly dissociated PICK1 from SCMSs | stability in PBS (PBS stability): good stability in PBS

CCOC(=O)NC(=O)/C(C#N)=C/c1ccc(Cl)c(Cl)c1 [FSC231]
mechanical hypersensitivity / withdrawal threshold, acute phase (SNI mice [2]; intrathecal, two days after operation): did not affect withdrawal threshold

CC(C)C[C@H](NC(=O)[C@H](C)NC(=O)[C@H](CCCCN)NC(=O)[C@H](CC(C)C)NC(=O)[C@H](C)NC(=O)[C@H](CC(C)C)NC(=O)[C@H](CCCCN)NC(=O)[C@H](CC(C)C)NC(=O)[C@H](C)NC(=O)[C@H](CC(C)C)NC(=O)[C@@H](N)CCCCN)C(=O)N[C@@H](CCCCN)C(=O)N[C@@H](C)C(=O)N[C@@H](C)C(=O)N[C@@H](CC(C)C)C(=O)N[C@@H](CCCCN)C(=O)N[C@@H](CC(C)C)C(=O)N[C@@H](C)C(=O)N(CCOCCOCCC(=O)N[C@@H](Cc1c[nH]cn1)C(=O)N[C@@H](Cc1c[nH]c2ccccc12)C(=O)N[C@@H](CC(C)C)C(=O)N[C@@H](CCCCN)C(=O)N[C@H](C(=O)O)C(C)C)CCOCCOCCC(=O)N[C@@H](Cc1c[nH]cn1)C(=O)N[C@@H](Cc1c[nH]c2ccccc12)C(=O)N[C@@H](CC(C)C)C(=O)N[C@@H](CCCCN)C(=O)N[C@H](C(=O)O)C(C)C [MAP-P4-(C5)2]
Ki (PICK1): 5.1 nM | Fold affinity change (PICK1): 0.8 fold | ipsilateral paw mechanical threshold compared to before drug administration (SNI mice [3]; 1 h): significant increase | ipsilateral paw mechanical threshold compared to before drug administration (SNI mice [3]; 2 h): significant increase | ipsilateral paw mechanical threshold compared to vehicle (SNI mice [3]; 2 h): significant increase | in-solution oligomeric behavior from elution volume [4]: forms higher oligomeric structures than P4-(C5)2

CC(C)C[C@H](NC(=O)[C@H](Cc1c[nH]c2ccccc12)NC(=O)[C@H](Cc1c[nH]cn1)NC(=O)CCOCCOCCOCCOCCOCCC(=O)N[C@@H](Cc1c[nH]cn1)C(=O)N[C@@H](Cc1c[nH]c2ccccc12)C(=O)N[C@@H](CC(C)C)C(=O)N[C@@H](CCCCN)C(=O)N[C@H](C(=O)O)C(C)C)C(=O)N[C@@H](CCCCN)C(=O)N[C@H](C(=O)O)C(C)C [P4-(C5)2, PEG4-(HWLKV)2]
fold increase in affinity compared to monomeric C5 (PICK1 PDZ domain): 15 fold

CC[C@H](C)[C@H](NC(=O)[C@H](CCCCN)NC(=O)[C@@H](NC(=O)[C@H](CCC(N)=O)NC(=O)[C@@H](N)CCCNC(=N)N)[C@@H](C)CC)C(=O)N[C@@H](Cc1c[nH]c2ccccc12)C(=O)N[C@@H](Cc1ccccc1)C(=O)N[C@@H](CCC(N)=O)C(=O)N[C@@H](CC(N)=O)C(=O)N[C@@H](CCCNC(=N)N)C(=O)N[C@@H](CCCNC(=N)N)C(=O)N[C@@H](CCSC)C(=O)N[C@@H](CCCCN)C(=O)N[C@@H](Cc1c[nH]c2ccccc12)C(=O)N[C@@H](CCCCN)C(=O)N[C@@H](CCCCN)C(=O)N(CCOCCOCCC(=O)N[C@@H](Cc1c[nH]cn1)C(=O)N[C@@H](Cc1c[nH]c2ccccc12)C(=O)N[C@@H](CC(C)C)C(=O)N[C@@H](CCCCN)C(=O)N[C@H](C(=O)O)C(C)C)CCOCCOCCC(=O)N[C@@H](Cc1c[nH]cn1)C(=O)N[C@@H](Cc1c[nH]c2ccccc12)C(=O)N[C@@H](CC(C)C)C(=O)N[C@@H](CCCCN)C(=O)N[C@H](C(=O)O)C(C)C [PNT-P4-(C5)2]
ipsilateral paw mechanical threshold compared to before drug administration (SNI mice [3]; any time-point): did not show significant increase | ipsilateral paw mechanical threshold compared to vehicle (SNI mice [3]; any time-point): no significant increase | in-solution oligomeric behavior from elution volume [4]: smaller oligomers than P4-(C5)2 or direct interaction with the column material

CC(C)C[C@H](NC(=O)[C@H](Cc1c[nH]c2ccccc12)NC(=O)[C@H](Cc1cnc[nH]1)NC(=O)[C@H](CCCNC(=N)N)NC(=O)[C@H](CCCNC(=N)N)NC(=O)[C@H](CCCNC(=N)N)NC(=O)[C@H](CCC(N)=O)NC(=O)[C@H](CCCNC(=N)N)NC(=O)[C@H](CCCNC(=N)N)NC(=O)[C@H](CCCCN)NC(=O)[C@H](CCCCN)NC(=O)[C@H](CCCNC(=N)N)NC(=O)CNC(=O)[C@@H](N)Cc1ccc(O)cc1)C(=O)N[C@@H](CCCCN)C(=O)N[C@H](C(=O)O)C(C)C [TAT-C5]
plasma stability (Plasma stability): improved | stability in PBS (PBS stability): good stability in PBS

CC[C@H](C)[C@H](NC(=O)[C@H](CCCCN)NC(=O)CNC(=O)[C@H](CC(C)C)NC(=O)[C@H](CC(C)C)NC(=O)[C@H](Cc1ccc(O)cc1)NC(=O)CNC(=O)[C@H](C)NC(=O)[C@H](CO)NC(=O)[C@H](CC(N)=O)NC(=O)[C@H](CC(C)C)NC(=O)[C@@H](NC(=O)[C@H](Cc1c[nH]c2ccccc12)NC(=O)CN)[C@@H](C)O)C(=O)N[C@@H](CC(N)=O)C(=O)N[C@@H](CC(C)C)C(=O)N[C@@H](CCCCN)C(=O)N[C@@H](C)C(=O)N[C@@H](CC(C)C)C(=O)N[C@@H](C)C(=O)N[C@@H](C)C(=O)N[C@@H](CC(C)C)C(=O)N[C@@H](C)C(=O)N[C@@H](CCCCN)C(=O)N[C@@H](CCCCN)C(=O)N[C@H](C(=O)N[C@@H](CC(C)C)C(=O)N(CCOCCOCCC(=O)N[C@@H](Cc1c[nH]cn1)C(=O)N[C@@H](Cc1c[nH]c2ccccc12)C(=O)N[C@@H](CC(C)C)C(=O)N[C@@H](CCCCN)C(=O)N[C@H](C(=O)O)C(C)C)CCOCCOCCC(=O)N[C@@H](Cc1c[nH]cn1)C(=O)N[C@@H](Cc1c[nH]c2ccccc12)C(=O)N[C@@H](CC(C)C)C(=O)N[C@@H](CCCCN)C(=O)N[C@H](C(=O)O)C(C)C)[C@@H](C)CC [TP10-P4-(C5)2]
Fold affinity change (PICK1): 0.5 fold | ipsilateral paw mechanical threshold compared to before drug administration (SNI mice [3]; 2 h): significant increase | ipsilateral paw mechanical threshold compared to vehicle (SNI mice [3]; 2 h): significant increase | in-solution oligomeric behavior from elution volume [4]: smaller oligomers than P4-(C5)2 or direct interaction with the column material

NCC1(CC(=O)O)CCCCC1 [gabapentin]
mechanical hypersensitivity, chronic phase (SNI mice [2]; 30 mg/kg i.p., day 14 after surgery, at 2 hours): full recovery from mechanical hypersensitivity
